Laboratory results published in US10975056B2 (GlaxoSmithKline Intellectual Property Development Limited, priority 2016, dated 2021).
Several values for one entry are separate records, joined by “and”; a condition that tells them apart may be missing. Equal entries are not always repeated. Where two headings read alike, the source gives them in different places.

Key:
DNMT1 = DNMT1 (Homo sapiens, UniProt P26358); assay: DNMT1 biochemical activity, breaklight assay and/or SPA assay
[1] = system: erythroid progenitor cells (EPCs); assay: Fetal hemoglobin (HbF) ELISA in day 7 erythroid progenitor cells; assay type: cell-based, human; conditions: HbF ELISA, day 7 EPCs, 5 days; for EC50: Homo sapiens, Erythroid progenitor cell, read-out: EPC ELISA (pEC50 category) (converted);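 as to all read-outs here: for fetal hemoglobin induction normalized to vehicle-treated cells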
In short: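 Read-out was OD450 from an HRP/TMB sandwich ELISA on lysates, normalized to DMSO-only control wells. Thawed day 7 EPCs from human marrow CD34+ cells had been treated for 5 days at 37° C with Compound A, 22 concentrations […].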

[2] = binned activity in either the breaklight or the SPA assay
[3] = binned activity in either the breaklight or the SPA assay, read-out: DNMT1 BioChemical (pIC50 category) (converted)

DNMT1, sequence (P26358 whole entry, looked up): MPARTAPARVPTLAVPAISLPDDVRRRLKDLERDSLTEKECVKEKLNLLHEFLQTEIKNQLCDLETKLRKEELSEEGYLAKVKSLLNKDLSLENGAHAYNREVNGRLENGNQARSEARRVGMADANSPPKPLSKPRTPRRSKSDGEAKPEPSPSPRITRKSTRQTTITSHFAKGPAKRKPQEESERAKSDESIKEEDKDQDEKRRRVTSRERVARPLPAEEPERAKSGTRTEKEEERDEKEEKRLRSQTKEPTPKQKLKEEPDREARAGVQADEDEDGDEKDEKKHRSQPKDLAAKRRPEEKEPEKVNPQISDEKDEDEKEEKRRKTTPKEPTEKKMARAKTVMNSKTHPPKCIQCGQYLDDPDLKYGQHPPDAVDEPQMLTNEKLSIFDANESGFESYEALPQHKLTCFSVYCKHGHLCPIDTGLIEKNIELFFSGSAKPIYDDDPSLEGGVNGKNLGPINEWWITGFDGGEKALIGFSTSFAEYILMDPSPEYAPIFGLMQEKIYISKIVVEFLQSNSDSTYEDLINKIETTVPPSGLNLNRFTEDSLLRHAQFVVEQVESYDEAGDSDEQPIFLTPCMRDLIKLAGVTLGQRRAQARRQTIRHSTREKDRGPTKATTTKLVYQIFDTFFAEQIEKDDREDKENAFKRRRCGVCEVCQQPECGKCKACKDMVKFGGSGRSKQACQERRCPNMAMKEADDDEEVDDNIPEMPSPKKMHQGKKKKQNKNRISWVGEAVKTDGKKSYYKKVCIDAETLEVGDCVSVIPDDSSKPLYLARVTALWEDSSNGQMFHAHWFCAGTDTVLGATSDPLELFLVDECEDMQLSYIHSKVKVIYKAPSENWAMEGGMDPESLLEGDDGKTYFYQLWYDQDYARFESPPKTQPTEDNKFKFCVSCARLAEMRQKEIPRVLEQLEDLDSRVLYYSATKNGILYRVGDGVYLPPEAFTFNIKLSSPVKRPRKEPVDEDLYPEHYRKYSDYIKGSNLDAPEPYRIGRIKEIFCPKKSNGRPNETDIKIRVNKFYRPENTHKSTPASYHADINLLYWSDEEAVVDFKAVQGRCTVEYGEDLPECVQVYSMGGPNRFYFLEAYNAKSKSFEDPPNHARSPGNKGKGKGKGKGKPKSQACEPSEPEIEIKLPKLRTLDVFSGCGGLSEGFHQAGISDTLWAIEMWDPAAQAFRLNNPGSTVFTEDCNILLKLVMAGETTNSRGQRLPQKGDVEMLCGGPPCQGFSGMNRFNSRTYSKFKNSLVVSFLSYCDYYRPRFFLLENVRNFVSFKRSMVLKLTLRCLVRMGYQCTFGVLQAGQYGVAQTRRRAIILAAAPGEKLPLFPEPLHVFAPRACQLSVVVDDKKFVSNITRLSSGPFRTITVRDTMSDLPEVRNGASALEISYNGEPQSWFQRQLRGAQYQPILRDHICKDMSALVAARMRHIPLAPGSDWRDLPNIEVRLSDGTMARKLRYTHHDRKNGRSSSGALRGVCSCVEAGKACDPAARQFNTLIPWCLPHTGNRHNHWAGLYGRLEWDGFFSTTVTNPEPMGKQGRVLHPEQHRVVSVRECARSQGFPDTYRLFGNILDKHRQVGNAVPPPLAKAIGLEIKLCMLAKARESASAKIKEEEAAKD

Row | Structure (SMILES) | DNMT1 BioChemical (pIC50 category) (DNMT1; [2]) | EC50 [1] | IC50 (DNMT1; [3]) | IC50 (DNMT1; breaklight assay and/or SPA assay, repeated experimental runs, read-out: average pIC50 against DNMT1 (converted)) | EPC ELISA (pEC50 category) [1]
1 | CCc1c(C#N)c(SCc2ccc(N(C)S(C)(=O)=O)cc2)nc(N2CCOC(CN(C)C)C2)c1C#N (stereo not drawn) [Example 571, N-(4-(((3,5-dicyano-6-(2-((dimethylamino)methyl)morpholino)-4-ethylpyridin-2-yl)thio)methyl)phenyl)-N-methylmethanesulfonamide] | D (Category D: ≥6.5) | < 316 nM |  |  | 
2 | CCc1c(C#N)c(SC(C(N)=O)c2ccccc2)nc(N2CCO[C@H](CNCC(C)(C)C)C2)c1C#N (stereo partly drawn) [Example 555] | D (Category D: ≥6.5) | < 316 nM |  |  | 
3 | CCc1c(C#N)c(SC(C(N)=O)c2ccccc2)nc(N2CCC(NC(C)(C)C(=O)OC)CC2)c1C#N (stereo not drawn) [Example 487, methyl 2-((1-(6-((2-amino-2-oxo-1-phenylethyl)thio)-3,5-dicyano-4-ethylpyridin-2-yl)piperidin-4-yl)amino)-2-methylpropanoate] | D (Category D: ≥6.5) | < 316 nM |  |  | 
4 | CCc1c(C#N)c(SC(C(N)=O)c2ccccc2)nc(N(C)CCN2CCNCC2)c1C#N (stereo not drawn) [Example 167, 2-((3,5-Dicyano-4-ethyl-6-(methyl(2-(piperazin-1-yl)ethyl)amino)pyridin-2-yl)thio)-2-phenylacetamide] | D (Category D: ≥6.5) | < 316 nM |  |  | 
5 | CCc1c(C#N)c(S[C@@H](C(N)=O)c2ccccc2)nc(N2CC[C@](O)(CN)C2)c1C#N [Example 624, (R)-2-((6-((S)-3-(aminomethyl)-3-hydroxypyrrolidin-1-yl)-3,5-dicyano-4-ethylpyridin-2-yl)thio)-2-phenylacetamide] | D (Category D: ≥6.5) |  |  |  | B (Category B: 4.5 ≤ x < 6.0)
6 | CCc1c(C#N)c(SCc2ccc(N(C)S(C)(=O)=O)cc2)nc(N2CCC(NC(=O)CN)CC2)c1C#N [Example 590, 2-amino-N-(1-(3,5-dicyano-4-ethyl-6-((4-(N-methylmethylsulfonamido)benzyl)thio)pyridin-2-yl)piperidin-4-yl)acetamide] | D (Category D: ≥6.5) | 1000 to 31600 nM |  |  | 
7 | CCc1c(C#N)c(SC(C(N)=O)c2ccccc2)nc(N2CCN(C3CCNCC3)CC2)c1C#N (stereo not drawn) [Example 13, 2-({3,5-dicyano-4-ethyl-6-[4-(piperidin-4-yl)piperazin-1-yl]pyridin-2-yl}sulfanyl)-2-phenylacetamide] |  | 316 to 1000 nM | 316 to 1000 nM |  | 
8 | CCOc1c(C#N)c(SC(C(N)=O)c2ccccc2)nc(N(C)C)c1C#N (stereo not drawn) [Example 192, 2-((3,5-Dicyano-6-(dimethylamino)-4-ethoxypyridin-2-yl)thio)-2-phenylacetamide] | D (Category D: ≥6.5) | 1000 to 31600 nM |  |  | 
9 | CCc1c(C#N)c(SC(C(N)=O)c2ccccc2)nc(N2CCC(C)(NCC(F)F)CC2)c1C#N (stereo not drawn) [Example 232] |  | 316 to 1000 nM | 316 to 1000 nM |  | 
10 | CCc1c(C#N)c(SC(C(N)=O)c2ccccc2)nc(N2CCN(Cc3ccoc3)CC2)c1C#N (stereo not drawn) [Example 200, 2-((3,5-Dicyano-4-ethyl-6-(4-(furan-3-ylmethyl)piperazin-1-yl)pyridin-2-yl)thio)-2-phenylacetamide] |  | 1000 to 31600 nM | 316 to 1000 nM |  | 

Now from value to compound, other results behind:

Row | DNMT1 BioChemical (pIC50 category) (DNMT1; [2]) | EC50 [1] | IC50 (DNMT1; [3]) | IC50 (DNMT1; breaklight assay and/or SPA assay, repeated experimental runs, read-out: average pIC50 against DNMT1 (converted)) | Structure (SMILES) | EPC ELISA (pEC50 category) [1]
11 | D (Category D: ≥6.5) | < 316 nM |  |  | CCc1c(C#N)c(SC(C(N)=O)c2ccccc2)nc(N(C)CC(=O)N(C)CC(C)(C)CO)c1C#N (stereo not drawn) [Example 615, 2-((6-((2-amino-2-oxo-1-phenylethyl)thio)-3,5-dicyano-4-ethylpyridin-2-yl)(methyl)amino)-N-(3-hydroxy-2,2-dimethylpropyl)-N-methylacetamide] | 
12 |  | 316 to 1000 nM | < 316 nM |  | CCc1c(C#N)c(SC(C(N)=O)c2ccccc2)nc(N(C)CC(=O)NC2(CO)COC2)c1C#N (stereo not drawn) [Example 675, 2-((6-((2-amino-2-oxo-1-phenylethyl)thio)-3,5-dicyano-4-ethylpyridin-2-yl)(methyl)amino)-N-(3-(hydroxymethyl)oxetan-3-yl)acetamide] | 
13 | D (Category D: ≥6.5) | 316 to 1000 nM |  |  | CCc1c(C#N)c(S[C@H](C(N)=O)c2ccccc2)nc(N2CC(N)C2)c1C#N (stereo in doubt) [Example 635, 2-((6-(3-aminoazetidin-1-yl)-3,5-dicyano-4-ethylpyridin-2-yl)thio)-2-phenylacetamide] | 
14 |  | < 316 nM | 316 to 1000 nM | 316 to 1000 nM and 501 nM | CCc1c(C#N)c(SCc2ccc(N(C)S(=O)(=O)C(F)F)cc2)nc(N2CCCN(C)CC2)c1C#N [Example 602, N-(4-(((3,5-dicyano-4-ethyl-6-(4-methyl-1,4-diazepan-1-yl)pyridin-2-yl)thio)methyl)phenyl)-1,1-difluoro-N-methylmethanesulfonamide] | 
15 |  | 1000 to 31600 nM | 316 to 1000 nM |  | CCc1c(C#N)c(SC(C(N)=O)c2cccc(P(C)(C)=O)c2)nc(N2CC[C@H](O)C2)c1C#N (stereo partly drawn) [Example 420, 2-((3,5-Dicyano-4-ethyl-6-((S)-3-hydroxypyrrolidin-1-yl)pyridin-2-yl)thio)-2-(3-(dimethylphosphoryl)phenyl)acetamide] | 
16 |  | > 31600 nM | 316 to 1000 nM |  | CCc1c(C#N)c(SCc2ccc(B(O)O)cc2)nc(N2CCCN(C)CC2)c1C#N [Example 357, 4-((3,5-Dicyano-4-ethyl-6-(4-methyl-1,4-diazepan-1-yl)pyridin-2-ylthio)methyl)phenylboronic acid] | 
17 | D (Category D: ≥6.5) | 1000 to 31600 nM |  |  | N#Cc1c(SC(C(N)=O)c2ccccc2)nc(N2CC(NC(=O)[C@@H](N)CO)C2)c(C#N)c1C1CC1 (stereo partly drawn) [Example 611, (2S)-2-amino-N-(1-(6-((2-amino-2-oxo-1-phenylethyl)thio)-3,5-dicyano-4-cyclopropylpyridin-2-yl)azetidin-3-yl)-3-hydroxypropanamide] | 
18 |  | 316 to 1000 nM | 316 to 1000 nM |  | CCc1c(C#N)c(SC(C(N)=O)c2ccccc2)nc(N2CCC(OCCO)CC2)c1C#N (stereo not drawn) [Example 224, 2-((3,5-Dicyano-4-ethyl-6-(4-(2-hydroxyethoxy)piperidin-1-yl)pyridin-2-yl)thio)-2-phenylacetamide] | 
19 | D (Category D: ≥6.5) | 1000 to 31600 nM |  |  | CCc1c(C#N)c(SC(C(N)=O)c2ccc(CC(N)=O)cc2)nc(N2CCCN(C)CC2)c1C#N (stereo not drawn) [Example 400, 2-(4-(2-Amino-2-oxoethyl)phenyl)-2-(3,5-dicyano-4-ethyl-6-(4-methyl-1,4-diazepan-1-yl)pyridin-2-ylthio)acetamide] | 
20 | D (Category D: ≥6.5) | < 316 nM |  |  | CCc1c(C#N)c(SC(C(N)=O)c2ccccc2)nc(N2CCC(NC3CCC3)CC2)c1C#N (stereo not drawn) [Example 448, 2-((3,5-dicyano-6-(4-(cyclobutylamino)piperidin-1-yl)-4-ethylpyridin-2-yl)thio)-2-phenylacetamide] | 
21 |  | 1000 to 31600 nM | 316 to 1000 nM |  | CN1CCCN(c2nc(SC(C(N)=O)c3ccccc3)c(C#N)c(-c3ccco3)c2C#N)CC1 (stereo not drawn) [Example 135, 2-((3,5-dicyano-4-(furan-2-yl)-6-(4-methyl-1,4-diazepan-1-yl)pyridin-2-yl)thio)-2-phenylacetamide] | 
22 | D (Category D: ≥6.5) | < 316 nM |  |  | CCc1c(C#N)c(SC(C(N)=O)c2ccccc2)nc(N(C)CC(=O)N(C)CCCO)c1C#N (stereo not drawn) [Example 665, 2-((6-((2-amino-2-oxo-1-phenylethyl)thio)-3,5-dicyano-4-ethylpyridin-2-yl)(methyl)amino)-N-(3-hydroxypropyl)-N-methylacetamide] | 
